These are literature values, as cited in paper PMC8900053, “Selumetinib in combination with dexamethasone for the treatment of relapsed/refractory RAS-pathway mutated paediatric and adult acute lymphoblastic leukaemia (SeluDex): study protocol for an international, parallel-group, dose-finding with expansion phase I/II trial” (BMJ Open, 2022).

Structures are written as SMILES.

For data set [1] the following is noted: human, in vivo.
The conditions of data set [2]: early information from clinical studies.
The mark [3] stands for this setting: common side effect of selumetinib.

As to `C[C@@H]1C[C@H]2[C@@H]3CCC4=CC(=O)C=C[C@]4(C)[C@@]3(F)[C@@H](O)C[C@]2(C)[C@@]1(O)C(=O)CO` [dexamethasone], in data set [1], the “Tolerability of pulsed dosing versus continuous dosing” value is “better tolerated”.
For `Cn1cnc2c(F)c(Nc3ccc(Br)cc3Cl)c(C(=O)NOCCO)cc21` [selumetinib], the “Blood levels of selumetinib in people of Asian origin versus non-Asian subjects” value in data set [2] is listed as “higher”. In addition, for the setting “blurred vision mild or moderate in all reported previous cases”, the “Chance that blurred vision may affect daily living” value was “about 5%”. For the same molecule, under setting [3], the “Being sick (people affected)” value is reported as about 30%, the “Diarrhoea (people affected)” value was about 50%, the “Feeling sick (people affected)” value is recorded as about 50% and the “Feeling tired or weak (people affected)” value is recorded as about 40%. Under setting [3], the “Shortness of breath (people affected)” value was about 20%; the “Skin rash, which may be itchy (people affected)” value is recorded as about 70%; the “Swelling of the hands or feet (people affected)” value is on record as about 30%. Besides, the Tolerability entry (more than 3,080 people have had the drug so far) is “very well tolerated”. In addition, the “Swelling of the face or extremities” value (patients receiving selumetinib) is “commonly reported”. Where the note is “share of skin rash cases, majority of events are mild”, the “Skin rash cases that can be more serious and require treatment” value is reported as “around 10%”.
